In patent publication US20230233569A1 (Revolution Medicines, Inc., priority 2020, published 2023):
Several values for one entry are separate records, joined by “and”; a condition that tells them apart may be missing. Equal entries are not always repeated. Where two headings read alike, the source gives them in different places.

Tests used:
KRAS G12D = KRAS G12D (Homo sapiens, UniProt P01116+P62937, G12D); assay: Disruption of BRAF RBD interaction with Ras (FRET / MOA assay, with Cyclophilin A); assay type: biochemical
KRAS G12D, sequence (P01116 1-169 isoform P01116-2 G12D limits assumed): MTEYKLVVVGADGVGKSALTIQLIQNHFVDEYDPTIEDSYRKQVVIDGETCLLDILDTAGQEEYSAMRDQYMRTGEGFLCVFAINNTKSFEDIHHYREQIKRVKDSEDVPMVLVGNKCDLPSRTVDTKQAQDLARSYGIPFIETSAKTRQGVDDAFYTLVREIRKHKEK
KRAS G12D, sequence (P62937 whole entry): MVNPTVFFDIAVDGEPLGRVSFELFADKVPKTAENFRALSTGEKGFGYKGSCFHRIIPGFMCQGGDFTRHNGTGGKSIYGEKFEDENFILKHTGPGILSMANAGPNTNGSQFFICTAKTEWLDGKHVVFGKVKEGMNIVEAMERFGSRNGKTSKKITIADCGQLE
Summary of the method: (§1)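 Compound-driven ternary complex formation between nucleotide-loaded K-Ras and Cyclophilin A was measured as loss of BRAF RBD binding. Compounds (10-point 3-fold series, top 30 μM final) were incubated 3 h at 25 °C, then anti-His Eu-W1024 (10 nM) and anti-GST allophycocyanin (50 nM) added for 1.5 h. IC50 was taken from the TR-FRET ratio decrease versus DMSO.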

NRAS G12C = NRAS G12C (Homo sapiens, UniProt P01111+P62937, G12C); assay: as above; assay type: biochemical
NRAS G12C, sequence (P01111 whole entry G12C): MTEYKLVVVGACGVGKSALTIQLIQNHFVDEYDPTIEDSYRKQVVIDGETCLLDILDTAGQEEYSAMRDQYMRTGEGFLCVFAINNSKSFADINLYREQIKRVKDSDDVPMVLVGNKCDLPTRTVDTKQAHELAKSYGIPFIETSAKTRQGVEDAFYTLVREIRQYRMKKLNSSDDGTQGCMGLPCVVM
NRAS G12C, sequence (P62937 whole entry): as the sequence (P62937 whole entry) above

KRAS G13D = KRAS G13D (Homo sapiens, UniProt P01116+P62937, G13D); assay: as above; assay type: biochemical
KRAS G13D, sequence (P01116 1-169 isoform P01116-2 G13D limits assumed): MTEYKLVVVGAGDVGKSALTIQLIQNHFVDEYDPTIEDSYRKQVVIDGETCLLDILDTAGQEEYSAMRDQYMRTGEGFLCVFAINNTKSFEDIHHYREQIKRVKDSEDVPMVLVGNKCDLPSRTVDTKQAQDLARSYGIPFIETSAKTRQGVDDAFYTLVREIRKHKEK
KRAS G13D, sequence (P62937 whole entry): as the sequence (P62937 whole entry) above
Summary of the method: as §1

KRAS G12V = KRAS G12V (Homo sapiens, UniProt P01116+P62937, G12V); assay: as above; assay type: biochemical
KRAS G12V, sequence (P01116 1-169 isoform P01116-2 G12V limits assumed): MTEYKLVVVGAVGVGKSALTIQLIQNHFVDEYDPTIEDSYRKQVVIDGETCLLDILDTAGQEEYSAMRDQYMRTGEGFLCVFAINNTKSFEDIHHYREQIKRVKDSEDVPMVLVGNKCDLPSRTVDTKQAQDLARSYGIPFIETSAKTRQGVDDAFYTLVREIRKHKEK
KRAS G12V, sequence (P62937 whole entry): as the sequence (P62937 whole entry) above
Summary of the method: as §1

KRAS G12C = KRAS G12C (Homo sapiens, UniProt P01116+P62937, G12C); assay: as above; assay type: biochemical
KRAS G12C, sequence (P01116 1-169 isoform P01116-2 G12C): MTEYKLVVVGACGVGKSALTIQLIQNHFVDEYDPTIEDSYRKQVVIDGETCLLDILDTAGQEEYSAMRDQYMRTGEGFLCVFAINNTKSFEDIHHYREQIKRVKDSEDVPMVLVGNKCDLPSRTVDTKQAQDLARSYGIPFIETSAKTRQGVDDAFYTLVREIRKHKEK
KRAS G12C, sequence (P62937 whole entry): as the sequence (P62937 whole entry) above
Summary of the method: as §1

KRAS G12S = KRAS G12S (Homo sapiens, UniProt P01116+P62937, G12S); assay: as above; assay type: biochemical
KRAS G12S, sequence (P01116 1-169 isoform P01116-2 G12S limits assumed): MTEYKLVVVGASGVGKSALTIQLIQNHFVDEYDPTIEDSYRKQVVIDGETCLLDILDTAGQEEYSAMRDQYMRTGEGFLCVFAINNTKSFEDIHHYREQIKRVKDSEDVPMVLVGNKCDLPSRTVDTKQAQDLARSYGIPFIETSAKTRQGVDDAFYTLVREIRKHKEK
KRAS G12S, sequence (P62937 whole entry): as the sequence (P62937 whole entry) above
Summary of the method: as §1

KRAS WT = KRAS WT (Homo sapiens, UniProt P01116+P62937); assay: as above; assay type: biochemical
KRAS WT, sequence (P01116 1-169 isoform P01116-2 limits assumed): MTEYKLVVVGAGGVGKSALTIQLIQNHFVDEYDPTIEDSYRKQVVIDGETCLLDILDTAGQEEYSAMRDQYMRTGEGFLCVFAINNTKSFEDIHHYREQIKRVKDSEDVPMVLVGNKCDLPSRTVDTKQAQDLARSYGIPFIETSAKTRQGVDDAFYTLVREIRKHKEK
KRAS WT, sequence (P62937 whole entry): as the sequence (P62937 whole entry) above
Summary of the method: as §1

KRAS G13C = KRAS G13C (Homo sapiens, UniProt P01116+P62937, G13C); assay: as above; assay type: biochemical
KRAS G13C, sequence (P01116 1-169 isoform P01116-2 G13C): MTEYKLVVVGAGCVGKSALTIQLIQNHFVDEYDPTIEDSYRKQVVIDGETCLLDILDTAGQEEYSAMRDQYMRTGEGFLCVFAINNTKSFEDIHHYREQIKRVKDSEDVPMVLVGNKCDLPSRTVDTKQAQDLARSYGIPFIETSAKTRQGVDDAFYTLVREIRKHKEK
KRAS G13C, sequence (P62937 whole entry): as the sequence (P62937 whole entry) above
Summary of the method: as §1

Capan-1 (K-Ras G12V) = assay: CellTiter-Glo cell viability assay, 5-day treatment; assay type: cell-based; conditions: Homo sapiens, CAPAN-1, 120 h, 5-day treatment; read-out: Capan-1 Cell Viability assay data (K-Ras G12V, IC50)
Summary of the method: (§2)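 Seeded cells received test compound by direct dispensing. On day 5 the plates sat at room temperature approximately 30 minutes, then luminescence was measured. Data were normalized to DMSO and curve-fitted with four parameters.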

NCI-H358 (K-Ras G12C) = assay: as above; assay type: cell-based; conditions: Homo sapiens, NCI-H358, 120 h, 5-day treatment; read-out: H358 Cell Viability assay data (K-Ras G12C, IC50)
Summary of the method: as §2

[1] = read-out: KRAS G12D FRET data, IC50
[2] = NRAS G12C, read-out: NRAS G12C FRET data IC50
[3] = KRAS G13D, read-out: KRAS G13D FRET data IC50
[4] = KRAS G12V, read-out: KRAS G12V FRET data IC50
[5] = read-out: KRAS G12C FRET data, IC50
[6] = read-out: KRAS G12S FRET data, IC50
[7] = KRAS WT, read-out: KRAS WT FRET data IC50
[8] = read-out: KRAS G13C FRET data, IC50

SMILES	IC50 (KRAS G12D; [1]) [nM]	IC50 (NRAS G12C; [2]) [nM]	IC50 (KRAS G13D; [3])	IC50 (KRAS G12V; [4])	IC50 (KRAS G12C; [5]) [nM]	IC50 (KRAS G12S; [6]) [nM]	IC50 (KRAS WT; [7])	IC50 (KRAS G13C; [8]) [nM]	IC50 (Capan-1 (K-Ras G12V)) [nM]	IC50 (NCI-H358 (K-Ras G12C)) [nM]	IC50 (KRAS G12D; KRAS G12D FRET data, IC50) [nM]	IC50 (NRAS G12C; NRAS G12C FRET data IC50, NRAS G12C) [nM]	IC50 (KRAS G13D; KRAS G13D FRET data IC50, KRAS G13D) [nM]	IC50 (KRAS G12V; KRAS G12V FRET data IC50, KRAS G12V) [nM]	IC50 (KRAS G12C; KRAS G12C FRET data, IC50) [nM]	IC50 (KRAS G12S; KRAS G12S FRET data, IC50) [nM]	IC50 (KRAS WT; KRAS WT FRET data IC50, KRAS WT) [nM]	IC50 (KRAS G13C; KRAS G13C FRET data, IC50) [nM]
CCn1c(-c2cccnc2[C@H](C)OC)c2c3cc(ccc31)-c1cc(O)cc(c1)C[C@H](NC(=O)[C@H](C(C)C)N(C)C(=O)[C@H]1CCN(C(=O)OC(C)(C)C)C1)C(=O)N1CCC[C@H](N1)C(=O)OCC(C)(C)C2 [Example A233]	100 to 1000	10 to 100	100 to 1000 nM	10 to 100 nM	10 to 100	100 to 1000	100 to 1000 nM	10 to 100	10 to 100	10 to 100	–	–	–	–	–	–	–	–
CCn1c(-c2cccnc2[C@H](C)OC)c2c3cc(ccc31)-c1csc(n1)C[C@H](NC(=O)[C@H](C(C)C)N(C)C(=O)[C@H]1CCCO1)C(=O)N1CCC[C@H](N1)C(=O)OCC(C)(C)C2 [Example A238]	> 10000	1000 to 10000	1000 to 10000 nM	1000 to 10000 nM	1000 to 10000	1000 to 10000	1000 to 10000 nM	1000 to 10000	100 to 1000	100 to 1000	–	–	–	–	–	–	–	–
CCn1c(-c2cccnc2[C@H](C)OC)c2c3cc(ccc31)-c1csc(n1)C[C@H](NC(=O)[C@H](C(C)C)N(C)C(=O)[C@@H]1C[C@@H]1C)C(=O)N1CCC[C@H](N1)C(=O)OCC(C)(C)C2 [Example A239]	1000 to 10000	1000 to 10000	1000 to 10000 nM	1000 to 10000 nM	1000 to 10000	1000 to 10000	1000 to 10000 nM	1000 to 10000	100 to 1000	100 to 1000	–	–	–	–	–	–	–	–
CCn1c(-c2cccnc2[C@H](C)OC)c2c3cc(ccc31)-c1cc(O)cc(c1)C[C@H](NC(=O)[C@H](C(C)C)N(C)C(=O)[C@H]1C[C@H](O)C1)C(=O)N1CCC[C@H](N1)C(=O)OCC(C)(C)C2 [Example A241]	100 to 1000	100 to 1000	100 to 1000 nM	100 to 1000 nM	10 to 100	100 to 1000	10 to 100 nM	10 to 100	100 to 1000	100 to 1000	–	–	–	–	–	–	–	–
CCn1c(-c2cccnc2[C@H](C)OC)c2c3cc(ccc31)-c1cc(O)cc(c1)C[C@H](NC(=O)[C@H](C(C)C)N(C)C(=O)[C@H]1CCCNC1)C(=O)N1CCC[C@H](N1)C(=O)OCC(C)(C)C2 [Example A243]	10 to 100	10 to 100	10 to 100 nM	100 to 1000 nM	10 to 100	10 to 100	10 to 100 nM	10 to 100	> 10000	100 to 1000	–	–	–	–	–	–	–	–
CCN1CC(C(=O)N(C)[C@H](C(=O)N[C@H]2Cc3cc(O)cc(c3)-c3ccc4c(c3)c(c(-c3cccnc3[C@H](C)OC)n4CC)CC(C)(C)COC(=O)[C@@H]3CCCN(N3)C2=O)C(C)C)CC1=O (stereo partly shown) [Example A248]	100 to 1000	10 to 100	100 to 1000 nM and 10 to 100 nM	100 to 1000 nM and 10 to 100 nM	10 to 100	10 to 100	100 to 1000 nM and 10 to 100 nM	10 to 100	100 to 1000	10 to 100	–	–	–	–	–	–	–	–
CCn1c(-c2cnccc2COC)c2c3cc(ccc31)-c1cc(O)cc(c1)C[C@H](NC(=O)[C@H](C(C)C)N(C)C(=O)[C@@H]1CCCN(C)C1)C(=O)N1CCC[C@H](N1)C(=O)OCC(C)(C)C2 [Example A259]	100 to 1000	100 to 1000	100 to 1000 nM	1000 to 10000 nM	100 to 1000	100 to 1000	100 to 1000 nM	100 to 1000	1000 to 10000	1000 to 10000	–	–	–	–	–	–	–	–
CCn1c(-c2cnccc2COC)c2c3cc(ccc31)-c1cc(O)cc(c1)C[C@H](NC(=O)[C@H](C(C)C)N(C)C(=O)O[C@H]1CCOC1)C(=O)N1CCC[C@H](N1)C(=O)OCC(C)(C)C2 [Example A260]	1000 to 10000	100 to 1000	1000 to 10000 nM	1000 to 10000 nM	100 to 1000	100 to 1000	100 to 1000 nM	1000 to 10000	1000 to 10000	100 to 1000	–	–	–	–	–	–	–	–
CCn1c(-c2cnccc2COC)c2c3cc(ccc31)-c1cc(O)cc(c1)C[C@H](NC(=O)C1CCCC1C(F)F)C(=O)N1CCC[C@H](N1)C(=O)OCC(C)(C)C2 (stereo partly shown) [Example A261]	> 10000	1000 to 10000	1000 to 10000 nM	1000 to 10000 nM	1000 to 10000	1000 to 10000	1000 to 10000 nM	1000 to 10000	1000 to 10000	1000 to 10000	–	–	–	–	–	–	–	–
CCN1C[C@@H](C(=O)N(C)[C@H](C(=O)N[C@H]2Cc3cc(O)cc(c3)-c3ccc4c(c3)c(c(-c3cnccc3COC)n4CC)CC(C)(C)COC(=O)[C@@H]3CCCN(N3)C2=O)C(C)C)CC1=O [Example A262]	–	–	–	–	–	–	–	–	1000 to 10000	1000 to 10000	1000 to 10000	100 to 1000	100 to 1000	100 to 1000	10 to 100	100 to 1000	100 to 1000	100 to 1000
CCn1c(-c2cccnc2[C@H](C)OC)c2c3cc(ccc31)-c1csc(n1)C[C@H](NC(=O)[C@H](C(C)C)N(C)C(=O)N1CC(N3CCN(C)CC3)C1)C(=O)N1CCC[C@H](N1)C(=O)OCC(C)(C)C2 [Example A288]	100 to 1000	10 to 100	100 to 1000 nM	100 to 1000 nM	10 to 100	100 to 1000	100 to 1000 nM	100 to 1000	10 to 100	10 to 100	–	–	–	–	–	–	–	–
CCn1c(-c2cccnc2[C@H](C)OC)c2c3cc(ccc31)-c1csc(n1)C[C@H](NC(=O)[C@H](C(C)C)N(C)C(=O)N1CCOC3(CN(C)C3)C1)C(=O)N1CCC[C@H](N1)C(=O)OCC(C)(C)C2 [Example A294]	100 to 1000	100 to 1000	100 to 1000 nM	100 to 1000 nM	100 to 1000	100 to 1000	100 to 1000 nM	100 to 1000	100 to 1000	10 to 100	–	–	–	–	–	–	–	–
CCn1c(-c2cccnc2[C@H](C)OC)c2c3cc(ccc31)-c1csc(n1)C[C@H](NC(=O)[C@H](C(C)C)N(C)C(=O)N1CCN(C)C3(CC3)C1)C(=O)N1CCC[C@H](N1)C(=O)OCC(C)(C)C2 [Example A311]	100 to 1000	100 to 1000	100 to 1000 nM	100 to 1000 nM	100 to 1000	100 to 1000	100 to 1000 nM	100 to 1000	100 to 1000	10 to 100	–	–	–	–	–	–	–	–
